Assay results reported in US10358435B2, “Triazolyl pyrimidinone compounds as PDE2 inhibitors” (Merck Sharp & Dohme Corp., priority 2015, dated 2019).

Biological target: human PDE2A1 (Homo sapiens (Human), UniProt O00408)
Assay: IMAP fluorescence polarization assay, human PDE2A1 (PDE selectivity panel)
Format: biochemical
Settings: FAM cAMP 50 nM with 1000 nM cGMP
Description: The activity of the compounds in accordance with the present invention as PDE2 inhibitors may be readily determined using a fluorescence polarization (FP) methodology (Huang, W., et al., J. Biomol Screen, 2002, 7: 215).
Dose-inhibition profiles for each compound were characterized by fitting the mP data to a four-parameter equation given below.
Selectivity for PDE2, as compared to other PDE families, was assessed using the IMAP® technology. Human PDE10A2 enzyme was prepared from cytosolic fractions of transiently transfected HEK cells. All other PDE's were GST Tag human enzyme expressed in insect cells and were obtained from BPS Bioscience (San Diego, Calif.): PDE1A (Cat#60010), human PDE2A1 (Cat#60020), PDE3A (Cat#60030), PDE4A1A (Cat#60040), PDE5A1 (Cat#60050), PDE6C (Cat#60060), PDE7A (Cat#60070), PDE8A1 (Cat#60080), PDE9A2 (Cat#60090), PDE11A4 (Cat#60110).
Assays for PDE 1 through 11 were performed in parallel at room temperature in 384-well microtiter plates with an incubation volume of 20.2 μL. Solutions of test compounds were prepared in DMSO and serially diluted with DMSO to yield 30 μL of each of ten solutions differing by 3-fold in concentration, at 32 serial dilutions per plate. […] A Labcyte POD 810 (Labcyte, Sunnyvale, Calif.) was used to dispense 200 nL from each well of the titration plate to make eleven copies of the assay plate for each titration, one copy for each PDE enzyme. A solution of each enzyme (dilution from aliquots, sufficient to produce 20% substrate conversion) and a separate solution of FAM-labeled cAMP or FAM-labeled cGMP from Molecular Devices (Sunnyvale, Calif., product # R7506 or cGMP#R7508), at a final concentration of 50 nM were made in the assay buffer (10 mM Tris HCl, pH 7.2, 10 mM MgCl2, 0.05% NaN3 0.01% Tween-20, and 1 mM DTT). Note that the substrate for PDE2 is 50 nM FAM cAMP containing 1000 nM of cGMP. The enzyme and the substrate were then added to the assay plates in two consecutive additions of 10 μL and then shaken to mix. The reaction was allowed to proceed at room temperature for 60 minutes. A binding solution was then made from the kit components, comprised of 80% Solution A, 20% Solution B and binding reagent at a volume of 1/600 the total binding solution. The enzymatic reaction was stopped by addition of 60 μL of the binding solution to each well of the assay plate. The plates were sealed and shaken for 10 seconds. The plates were incubated at room temperature for one hour, then the parallel and perpendicular fluorescence was measured using a Tecan Genios Pro plate reader (Tecan, Switzerland). The apparent inhibition constants for the compounds against all 11 PDE's was determined from the parallel and perpendicular fluorescent readings as described for PDE10 FP assay using the following apparent KM values for each enzyme and substrate combination: PDE1A (FAM cGMP) 70 nM, human PDE2A1 (FAM cAMP) 10,000 nM, PDE3A (FAM cAMP) 50 nM, PDE4A1A (FAM cAMP) 1500 nM, PDE5A1 (FAM cGMP) 400 nM, PDE6C (FAM cGMP) 700 nM, PDE7A (FAM cAMP) 150 nM, PDE8A1 (FAM cAMP) 50 nM, PDE9A2 (FAM cGMP) 60 nM, PDE10A2 (FAM cAMP) 150 nM, PDE11A4 (FAM cAMP) 1000 nM. The intrinsic PDE2 inhibitory activity of a compound which may be used in accordance with the present invention may be determined by these assays.

human PDE2A1, sequence (O00408 other isoform, or with tags, fused parts or gaps): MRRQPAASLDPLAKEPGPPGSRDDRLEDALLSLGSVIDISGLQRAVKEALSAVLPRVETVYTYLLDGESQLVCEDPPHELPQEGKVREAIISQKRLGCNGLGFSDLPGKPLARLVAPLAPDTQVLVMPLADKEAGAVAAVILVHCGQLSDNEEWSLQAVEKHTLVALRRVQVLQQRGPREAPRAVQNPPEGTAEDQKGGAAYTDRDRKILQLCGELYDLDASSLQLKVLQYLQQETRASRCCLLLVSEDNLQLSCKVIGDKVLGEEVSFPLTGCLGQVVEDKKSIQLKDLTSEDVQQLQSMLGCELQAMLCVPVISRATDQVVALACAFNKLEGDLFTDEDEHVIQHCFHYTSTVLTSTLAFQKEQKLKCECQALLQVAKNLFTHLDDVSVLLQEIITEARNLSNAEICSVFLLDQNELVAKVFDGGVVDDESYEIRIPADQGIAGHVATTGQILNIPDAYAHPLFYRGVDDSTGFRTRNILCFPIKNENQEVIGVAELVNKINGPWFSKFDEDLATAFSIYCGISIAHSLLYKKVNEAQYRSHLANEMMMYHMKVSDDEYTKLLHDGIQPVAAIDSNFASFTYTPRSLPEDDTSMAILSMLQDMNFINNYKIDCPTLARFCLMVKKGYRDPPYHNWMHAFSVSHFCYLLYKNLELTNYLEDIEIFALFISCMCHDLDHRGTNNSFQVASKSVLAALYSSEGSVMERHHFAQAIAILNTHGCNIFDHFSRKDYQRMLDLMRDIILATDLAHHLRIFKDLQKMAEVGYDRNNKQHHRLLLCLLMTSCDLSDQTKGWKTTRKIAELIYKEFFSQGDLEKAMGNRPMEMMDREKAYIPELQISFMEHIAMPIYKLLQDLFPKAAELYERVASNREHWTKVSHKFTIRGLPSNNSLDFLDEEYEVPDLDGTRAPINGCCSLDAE

Q: For Cc1nc(-c2cn(C(C)c3ccc(C4CC4)cc3Cl)nn2)cc(=O)[nH]1 (single isomer, unassigned) [Example 26, (S)- or (R)-6-(1-(1-(2-chloro-4-cyclopropylphenyl)ethyl)-1H-1,2,3-triazol-4-yl)-2-methylpyrimidin-4(3H)-one], which Ki is on record?
A: 3.2 nM

Q: For Cc1nc(-c2cnn(C(C)c3ccc(C(F)(F)F)cc3F)n2)cc(=O)[nH]1 (single isomer, unassigned) [Example 4, (S)- or (R)-6-(2-(1-(2-fluoro-4-(trifluoromethyl)phenyl)ethyl)-2H-1,2,3-triazol-4-yl)-2-metylpyrimidin-4(3H)-one], which Ki is on record?
A: 1030 nM

Q: With Cc1nc(-c2cn(C(C)c3ccc(C(F)(F)F)c(F)c3F)nn2)cc(=O)[nH]1 (single isomer, unassigned) [Example 22, (S)- or (R)-6-(1-(1-(2,3-difluoro-4-(trifluoromethyl)phenyl)ethyl)-1H-1,2,3-triazol-4-yl)-2-methylpyrimidin-4(3H)-one] as the compound, how does the Ki read?
A: 17.7 nM

Q: For Cc1nc(-n2cnc([C@H](C)c3ccc(C(F)(F)F)cc3F)n2)cc(=O)[nH]1 (single isomer, unassigned) [Example 85], which Ki is on record?
A: 1200 nM

Q: With Cc1nc(-c2nnn3c2CCCCC3c2ccc(C(F)(F)F)cc2)cc(=O)[nH]1 (single isomer, unassigned) [Example 52, (S)- or (R)-2-methyl-6-(8-(4-(trifluoromethyl)phenyl)-5,6,7,8-tetrahydro-4H-[1,2,3]triazolo[1,5-a]azepin-3-yl)pyrimidin-4(3H)-one] as the compound, how does the Ki read?
A: 139 nM

Q: Which Ki does the source give for CCC(c1ccc(C(F)(F)F)cc1F)n1cc(-c2cc(=O)[nH]c(C)n2)nn1 (single isomer, unassigned) [Example 37, (R)- or (S)-6-(1-(1-(2-fluoro-4-(trifluoromethyl)phenyl)propyl-1H-1,2,3-triazol-4-yl)-2-methylpyrimidin-4(3H)-one] here?
A: 11 nM

Q: With Cc1nc(-c2nnc3n2CCC[C@]3(C)c2ccc(C(F)(F)F)cc2F)cc(=O)[nH]1 (single isomer, unassigned) [Example 80] as the compound, how does the Ki read?
A: 2060 nM

Q: Cc1nc(-n2cc([C@H](C)c3ccc(C(F)(F)F)cc3Cl)nn2)cc(=O)[nH]1 (single isomer, unassigned) [Example 75] was tested. Which Ki did it give?
A: 8.9 nM

Q: Which Ki does the source give for Cc1nc(-c2nnn3c2CCC[C@]3(C)c2ccc(C(F)(F)F)cc2C)cc(=O)[nH]1 (single isomer, unassigned) [Example 79] here?
A: 8.3 nM

Q: For Cc1nc(-c2nnn3c2CCCC3(C)c2ccc(C(F)(F)F)cc2F)cc(=O)[nH]1 (single isomer, unassigned) [Example 59, (S)- or (R)-6-(7-(2-fluoro-4-(trifluoromethyl)phenyl)-7-methyl-4,5,6,7-tetrahydro-[1,2,3]triazolo[1,5-a]pyridin-3-yl)-2-methylpyrimidin-4(3H)-one], which Ki is on record?
A: 178 nM

Q: How did the Ki turn out when Cc1nc(-c2cn(C(C)c3cc(F)c(C(F)(F)F)cc3F)nn2)cc(=O)[nH]1 (single isomer, unassigned) [Example 24, (S)- or (R)-6-(1-(1-(2,5-difluoro-4-(triufluoromethyl)phenyl)ethyl)-1H-1,2,3-triazol-4-yl)-2-methylpyrimidin-4(3H)-one] was run?
A: 38.8 nM

Q: Cc1nc(-n2cc([C@H](C)c3ccc(C(F)(F)F)cc3Cl)nn2)cc(=O)[nH]1 (single isomer, unassigned) [Example 74] was tested. Which Ki did it give?
A: 0.42 nM

Q: Cc1nc(-c2cn(C(C)(C)c3ccc(C(F)(F)F)cc3C)nn2)cc(=O)[nH]1 [Example 31, 2-methyl-6-(1-(2-(2-methyl-4-(trifluoromethyl)phenyl)propan-2-yl)-1H-1,2,3-triazol-4-yl) pyrimidin-4(3H)-one] was tested. Which Ki did it give?
A: 5.4 nM

Q: Which Ki does the source give for CCC1(c2ccc(C(F)(F)F)cc2)CCCc2c(-c3cc(=O)[nH]c(C)n3)nnn21 (single isomer, unassigned) [Example 56, (R)- or (S)-6-(7-ethyl-7-(4-(trifluoromethyl)phenyl)-4,5,6,7-tetrahydro-[1,2,3]triazolo[1,5-a]pyridin-3-yl)-2-methylpyrimidin-4(3H)-one] here?
A: 616 nM

Q: For CCC(c1ccc(C(F)(F)F)cc1F)n1cc(-c2cc(=O)[nH]c(C)n2)nn1 (single isomer, unassigned) [Example 38, (S)- or (R)-6-(1-(1-(2-fluoro-4-(trifluoromethyl)phenyl)propyl)-1H-1,2,3-triazol-4-yl)-2-methylpyrimidin-4(3H)-one], which Ki is on record?
A: 10.5 nM

Q: Which Ki does the source give for Cc1nc(-c2nnn3c2CCC[C@@]3(C)c2ccc(C(F)(F)F)cc2)cc(=O)[nH]1 (single isomer, unassigned) [Example 54] here?
A: 16.2 nM

Q: Cc1nc(-c2nnc(C(C)c3ccc(C(F)(F)F)cc3Cl)[nH]2)cc(=O)[nH]1 (single isomer, unassigned) [Example 65, (R)- or (S)-6-(5-(1-(2-chloro-4-(trifluoromethyl)-phenyl)ethyl)-4H-1,2,4-triazol-3-yl)-2-methylpyrimidin-4(3H)-one] was tested. Which Ki did it give?
A: 15.9 nM

Q: For Cc1nc(-c2cnn(C(C)c3ccc(C(F)(F)F)cc3C)n2)cc(=O)[nH]1 (single isomer, unassigned) [Example 5, (R)- or (S)-2-methyl-6-(2-(1-(2-methyl-4-(trifluoromethyl)phenyl)ethyl)-2H-1,2,3-triazol-4-yl)pyrimidin-4(3H)-one], which Ki is on record?
A: 52.2 nM

Q: Which Ki does the source give for Cc1nc(-c2cn(C(C)(C)c3ccc(C4CC4)cc3Cl)nn2)cc(=O)[nH]1 [Example 34, 6-(1-(2-(2-chloro-4-cyclopropylphenyl)propan-2-yl)-1H-1,2,3-triazol-4-yl)-2-methylpyrimdin-4(3H)-one] here?
A: 4.9 nM

Q: With Cc1nc(-c2ncn(C(C)c3ccc(C(F)(F)F)cc3F)n2)cc(=O)[nH]1 (stereo not shown) [Example 86, 6-(1-(1-(2-Fluoro-4-(trifluoromethyl)phenyl)ethyl)-1H-1,2,4-triazol-3-yl)-2-methylpyrimidin-4(3H)-one] as the compound, how does the Ki read?
A: 167 nM

Q: Which Ki does the source give for Cc1nc(-c2nnc3n2CCCC3(C)c2ccc(C(F)(F)F)cc2)cc(=O)[nH]1 (single isomer, unassigned) [Example 72, (S)- or (R)-2-methyl-6-(8-methyl-8-(4-(trifluoromethyl)phenyl)-5,6,7,8-tetrahydro-[1,2,4]triazolo[4,3-a]pyridin-3-yl)pyrimidin-4(3H)-one] here?
A: 864 nM

Q: CCC1(c2ccc(C(F)(F)F)cc2)CCCc2c(-c3cc(=O)[nH]c(C)n3)nnn21 (single isomer, unassigned) [Example 57, (S)- or (R)-6-(7-ethyl-7-(4-(trifluoromethyl)phenyl)-4,5,6,7-tetrahydro-[1,2,3]triazolo[1,5-a]pyridin-3-yl)-2-methylpyrimidin-4(3H)-one] was tested. Which Ki did it give?
A: 29 nM

Q: Cc1nc(-c2cn([C@@H](C)c3ccc(C(F)(F)F)cc3Cl)nn2)cc(=O)[nH]1 (single isomer, unassigned) [Example 36] was tested. Which Ki did it give?
A: 1.7 nM

Q: Cc1nc(-c2cn(C(c3ccc(C(F)(F)F)cc3F)C3CC3)nn2)cc(=O)[nH]1 (single isomer, unassigned) [Example 41] was tested. Which Ki did it give?
A: 38 nM

Q: For CCc1ccc(C(C)n2ncc(-c3cc(=O)[nH]c(C)n3)n2)c(Cl)c1 (single isomer, unassigned) [Example 8, (S)- or (R)-6-(2-(1-(2-chloro-4-ethylphenyl)ethyl)-2H-1,2,3-triazol-4-yl)-2-methylpyrimidin-4(3H)-one], which Ki is on record?
A: ~1550 nM
